Legend:
RTV-309 = test: Phenotypic susceptibility assay, RTV-309; assay type: cell-based, HIV; conditions: patient 1033 sample before any NNRTI
Text: The resistance test vectors containing a functional luciferase gene cassette were constructed and host cells were transfected with the resistance test vector DNA. The resistant test vectors contained patient-derived reverse transcriptase and protease sequences that were either susceptible or resistant to the antiretroviral agents, such as nucleoside reverse transcriptase inhibitors, (NRTIs) non-nucleoside reverse transcriptase inhibitors […] protease inhibitors. The resistance test vector viral particles produced by transfecting the resistance test vector DNA into host cells, either in the presence or absence of PRIs, were used to infect target host cells grown either in the absence of NRTIs or NNRTIs, or in the presence of increasing concentrations of the drug. The amount of luciferase activity produced in infected target host cells in the presence of varying concentrations of drug was compared to the amount of luciferase produced in infected target host cells in the absence of drug. […] The IC50 values were determined by plotting percent drug inhibition vs. log10 drug concentration. Stimulation of viral replication was measured as the percent increase in luciferase activity detected when infection occurs in the presence of drug as compared to in the absence of drug.
Host cells were seeded in 10-cm-diameter dishes and were transfected several days after plating with resistance test vector plasmid DNA and the envelope expression vector. […] HIV capsid protein (p24) levels in the harvested cell culture media were determined by an EIA method as described by the manufacturer (SAIC; Frederick, Md.). […] The inhibitory effect of the drug was determined using the following equation: […]
where RLUluc [drug] is the Relative Light Unit of luciferase activity in infected cells in the presence of drug, and RLUluc is the Relative Light Unit of luciferase activity in infected cells in the absence of drug. […] The percent luciferase stimulation is the negative of the % inhibition calculated using the formula above. […]

RTV-1033-3/106V/227F = test: Phenotypic susceptibility assay, RTV-1033-3/106V/227F; assay type: cell-based, HIV; conditions: RTV-1033-3 with V106A and F227L reverted
Text: (§1) The resistance test vectors containing a functional luciferase gene cassette were constructed and host cells were transfected with the resistance test vector DNA. The resistant test vectors contained patient-derived reverse transcriptase and protease sequences that were either susceptible or resistant to the antiretroviral agents, such as nucleoside reverse transcriptase inhibitors, (NRTIs) non-nucleoside reverse transcriptase inhibitors […] protease inhibitors. The resistance test vector viral particles produced by transfecting the resistance test vector DNA into host cells, either in the presence or absence of PRIs, were used to infect target host cells grown either in the absence of NRTIs or NNRTIs, or in the presence of increasing concentrations of the drug. The amount of luciferase activity produced in infected target host cells in the presence of varying concentrations of drug was compared to the amount of luciferase produced in infected target host cells in the absence of drug. “Drug resistance” was measured as the amount of drug required to inhibit by 50% the luciferase activity detected in the absence of drug (inhibitory concentration 50%, IC50). The IC50 values were determined by plotting percent drug inhibition vs. log10 drug concentration. Stimulation of viral replication was measured as the percent increase in luciferase activity detected when infection occurs in the presence of drug as compared to in the absence of drug.
(§2) Host cells were seeded in 10-cm-diameter dishes and were transfected several days after plating with resistance test vector plasmid DNA and the envelope expression vector. Transfections were performed using a calcium-phosphate precipitation procedure. The cell culture media containing the DNA precipitate was replaced with fresh medium, from one to 24 hours, after transfection. Cell culture media containing resistance test vector viral particles was harvested one to four days after transfection and was passed through a […] filter before being used to infect target host cells, or being stored at −80° C. HIV capsid protein (p24) levels in the harvested cell culture media were determined by an EIA method as described by the manufacturer (SAIC; Frederick, Md.). Before infection, target cells (293 and 293/T) were plated in cell culture media. Control infections were performed using cell culture media from mock transfections (no DNA) or transfections containing the resistance test vector plasmid DNA without the envelope expression plasmid. One to three or more days after infection, the media was removed and cell lysis buffer (Promega) was added to each well. Cell lysates were assayed for luciferase activity (FIG. 3). The inhibitory effect of the drug was determined using the following equation:
(§3) % luciferase inhibition=1−(RLUluc[drug]÷RLUluc)×100
(§4) where RLUluc [drug] is the Relative Light Unit of luciferase activity in infected cells in the presence of drug, and RLUluc is the Relative Light Unit of luciferase activity in infected cells in the absence of drug. IC50values were obtained from the sigmoidal curves that were generated from the data by plotting the percent inhibition of luciferase activity vs. the log10 drug concentration. The percent luciferase stimulation is the negative of the % inhibition calculated using the formula above.
A resistance test vector containing all of the mutations present in RTV-1033-3 except for V106A and F227L (RTV-1033-3/106V/227F) was constructed and tested using the phenotypic assay described earlier. The results were compared to those determined using the parent RTV-1033-3. We determined the pattern of phenotypic susceptibility to the NNRTIs, delavirdine, nevirapine and efavirenz, in the reverted vector, RTV-1033-3/106V/227F.

RTV-K103N = test: Phenotypic susceptibility assay, RTV-K103N; assay type: cell-based, HIV-1; conditions: site-directed K103N alone
Text: as §1, §2, §3, §4
(§5) A resistance test vector containing a single mutation, K103N, (RTV-K103N) was constructed and tested in the phenotypic assay described earlier. The results were compared to those determined using a genetically defined resistance test vector that was wild type at positions 103. We determined the pattern of phenotypic susceptibility to the NNRTIs, delavirdine, nevirapine and efavirenz, in RTV-K103N.

RTV-013415 = test: Phenotypic susceptibility assay, RTV-013415; assay type: cell-based, HIV; conditions: patient 013415; for decrease in susceptibility: V245M with multiple other mutations
Text: as §1, §2, §3, §4
A resistance test vector was constructed as described in Example 1 from a virus sample obtained from patient 013415. The prior and current treatment regimens are unknown. Isolation of viral RNA and RT/PCR was used to generate a patient derived segment (PDS) that comprised viral sequences coding for all of PR and aa 1-313 of RT. The PDS were inserted into an indicator gene viral vector to generate a resistance test vector designated RTV-013415. RTV-013415 was then tested in a phenotypic assay to determine accurately and quantitatively the level of susceptibility to a panel of anti-retroviral drugs. […]

RTV-010829/245V = test: Phenotypic susceptibility assay, RTV-010829/245V; assay type: cell-based, HIV; conditions: RTV-010829 with V245E reverted
Text: as §1, §2, §3, §4
A resistance test vector containing all of the mutations present in RTV-010829 except for the V245E mutation (RTV-010829/245V) was constructed and tested using the phenotypic assay described earlier. The results were compared to those determined using the parent RTV-010829. We determined the pattern of phenotypic susceptibility to the NNRTIs, delavirdine, nevirapine and efavirenz, in the reverted vector RTV-010829/245V. […] A resistance test vector containing all of the mutations present in RTV-010829 except for the I270M (RTV-010829/270I) was constructed and tested using the phenotypic assay described earlier. […]

RTV-K103N/I135T = test: Phenotypic susceptibility assay, RTV-K103N/I135T; assay type: cell-based, HIV-1; conditions: site-directed K103N + I135T
Text: as §1, §2, §3, §4
as §5, with “two mutations, K103N and I135T (RTV-K103N/I135T)” for “a single mutation, K103N, (RTV-K103N)”, “position 103 and 135.” for “positions 103.”, “RTV-K103N/I135T.” for “RTV-K103N.”

| SMILES | reduction in susceptibility (RTV-309) | drug-dependent stimulation of viral replication (RTV-1033-3/106V/227F) [%] | reductions in susceptibility compared to wild type control RTV (RTV-1033-3/106V/227F) [fold] | drug-dependent stimulation of viral replication (RTV-K103N) | reductions in susceptibility compared to wild type control RTV (RTV-K103N) [fold] | drug-dependent stimulation of viral replication (RTV-013415) [%] | decrease in susceptibility (RTV-013415) [fold] | drug-dependent stimulation of viral replication (RTV-010829/245V) [%] | reductions in susceptibility compared to wild type control RTV (RTV-010829/245V) [fold] | drug-dependent stimulation of viral replication (RTV-K103N/I135T) | reductions in susceptibility compared to wild type control RTV (RTV-K103N/I135T) [fold] |
| --- | --- | --- | --- | --- | --- | --- | --- | --- | --- | --- | --- |
| O=C1Nc2ccc(Cl)cc2[C@@](C#CC2CC2)(C(F)(F)F)O1 [efavirenz] | wild type pattern of susceptibility | ~80 | 6 | no drug-dependent stimulation | 29 | ~20 | > 450 | ~60 | 189 | no drug-dependent stimulation | 80 |
| CC(C)Nc1cccnc1N1CCN(C(=O)c2cc3cc(NS(C)(=O)=O)ccc3[nH]2)CC1 [delavirdine] | wild type pattern of susceptibility | ~80 | 6 | no drug-dependent stimulation | 87 | ~30 | > 250 | ~60 | 182 | no drug-dependent stimulation | 121 |
| Cc1ccnc2c1NC(=O)c1cccnc1N2C1CC1 [nevirapine] | 3 fold | ~110 | 13 | no drug-dependent stimulation | 67 | ~20 | > 600 | ~80 | 505 | no drug-dependent stimulation | 171 |

Source: patent US6653081B2, “Methods for monitoring antiretroviral therapy and guiding therapeutic decision in the treatment of HIV/AIDS” (ViroLogic, Inc., priority 2000, dated 2003)
